Results published in US12545658B2, “Pyridine derivatives as calcium-activated chloride channel modulators” (TMEM16A LIMITED, priority 2019, dated 2026).

Assays:
[1] = Microsomal stability (human microsomes); assay type: in vitro ADME; conditions: pH 7.4, 1 μM compound, 0.5 mg/mL protein, 1 mM NADPH, 37° C., read-out: Human Microsome Clint
Experimental: Microsomes (human) were obtained from Bioreclamation.
All Test and reference control compounds (raloxifene, diclofenac, terfenadine, propranolol, dextromethorphan and metoprolol) were dissolved to create a 100 μM stock (final concentrations; 91.5% Acetonitrile: 8.5% DMSO). Final test compound concentration in incubation was 1 μM (<0.1% DMSO).
Solution 1: 17.4 g potassium phosphate dibasic anhydrous (K2HPO4, 0.1 M) dissolved in 1 L deionised water. Solution 2: 13.6 g potassium phosphate monobasic anhydrous (KH2PO4, 0.1 M) dissolved in 1 L deionised water. pH7.4 with 2 mM magnesium chloride. NADPH (10 mM) is prepared in deionised water. Microsomes (all species) were removed from the −80° C. thawed at 37° C. Microsomes were diluted in assay buffer to achieve a final protein concentration of 0.5 mg/mL and 1 mM NADPH.
The following procedure was completed on a Perkin Elmer Janus robotic platform in 96 well format: The microsomal incubation plate was transferred to a heater shaker at 300 rpm and solution heated to 37° C. for 10 min pre-warm. A no co-factor control at 0 and 45 min and one replicates of each test compound was included in every assay. Microsomes were incubated at 37° C., on a shaker set at 300 rpm throughout the assay. […]

[2] = target: T1, human TMEM16A (TMEM16Aabc variant) (Homo sapiens, UniProt Q5XXA6); assay: Automated whole-cell patch clamp (QPatch) TMEM16A potentiator assay in FRT cells stably expressing human TMEM16A; assay type: cell-based; conditions: for QPatch TMEM16A % Potentiation @ 370 nM: 370 nM test compound; for QPatch TMEM16A % Potentiation @ 370 nM / QPatch TMEM16A % Potentation @ 3.3 μM: percentage increase of baseline TMEM16A current; for QPatch TMEM16A % Potentation @ 3.3 μM: 3.3 μM test compound
T1 construct: human TMEM16A (TMEM16Aabc variant)
T1 sequence (Q5XXA6 1-986): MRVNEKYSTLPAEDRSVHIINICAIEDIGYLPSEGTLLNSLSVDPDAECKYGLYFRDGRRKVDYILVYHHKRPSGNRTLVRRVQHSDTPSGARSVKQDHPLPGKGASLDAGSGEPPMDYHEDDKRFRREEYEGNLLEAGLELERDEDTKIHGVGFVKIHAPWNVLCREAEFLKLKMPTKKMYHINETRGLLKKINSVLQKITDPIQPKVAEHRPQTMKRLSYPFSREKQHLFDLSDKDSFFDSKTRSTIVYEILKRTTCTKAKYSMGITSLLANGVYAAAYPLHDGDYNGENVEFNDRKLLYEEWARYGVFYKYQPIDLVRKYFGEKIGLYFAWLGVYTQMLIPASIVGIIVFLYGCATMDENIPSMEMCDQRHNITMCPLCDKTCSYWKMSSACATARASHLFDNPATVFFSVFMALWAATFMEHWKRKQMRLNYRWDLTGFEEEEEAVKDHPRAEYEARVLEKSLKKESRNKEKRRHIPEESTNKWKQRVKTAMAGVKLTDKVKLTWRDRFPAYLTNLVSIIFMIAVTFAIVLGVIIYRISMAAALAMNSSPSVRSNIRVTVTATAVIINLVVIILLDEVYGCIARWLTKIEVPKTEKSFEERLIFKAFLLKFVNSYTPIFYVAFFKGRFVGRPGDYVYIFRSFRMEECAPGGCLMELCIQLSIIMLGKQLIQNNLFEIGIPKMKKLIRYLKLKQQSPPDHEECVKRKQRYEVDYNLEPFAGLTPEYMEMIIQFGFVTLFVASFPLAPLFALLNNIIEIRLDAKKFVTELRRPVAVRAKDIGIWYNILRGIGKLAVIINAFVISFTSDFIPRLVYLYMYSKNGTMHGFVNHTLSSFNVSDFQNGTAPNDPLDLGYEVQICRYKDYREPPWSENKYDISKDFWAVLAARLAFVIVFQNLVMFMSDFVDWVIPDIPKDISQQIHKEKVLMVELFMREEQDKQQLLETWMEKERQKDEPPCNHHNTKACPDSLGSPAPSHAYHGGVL
Experimental: Fisher rat thyroid (FRT) cells stably expressing human TMEM16A (TMEM16Aabc variant; Dr Luis Galietta, Insituto Giannina, Italy) were cultured in T-75 flasks in Hams F-12 media with Coon's modification (Sigma) supplemented with 10% (v/v) foetal bovine serum, penicillin-streptomycin (10,000 U/mL/10000 μg/mL), G-418 (750 μg/mL), L-glutamine (2 mM) and sodium bicarbonate solution (7.5% v/v). At ˜90% confluence cells were harvested for experiments by detachment with a 2:1 (v/v) mixture of Detachin (BMS Biotechnology) and 0.25% (w/v) trypsin-EDTA.
FRT-TMEM16A cells were whole-cell patch clamped using an automated planar patch clamp system (Qpatch, Sophion). Briefly, once high resistance (GOhm) seals were established between the cells and the planar recording array the patch was ruptured using suction pulses to establish the whole-cell recording configuration of the patch clamp technique. The assay employed the following solutions (all reagents Sigma): Intracellular solution (mM): N-methyl-D-glucamine 130, CaCl2 18.2, MgCl2 1, HEPES 10, EGTA 10, BAPTA 20, Mg-ATP 2, pH 7.25, 325 mOsm with sucrose.
Extracellular solution (mM): N-methyl-D-glucamine 130, CaCl2 2, MgCl2 1, HEPES 10, pH 7.3, 320 mOsm with sucrose.
The intracellular solution buffers intracellular calcium at levels required to give ˜20% activation of the maximal TMEM16A mediated current (EC20 for calcium ions). Cells were voltage clamped at a holding potential of −70 mV and a combined voltage step (to +70 mV)/ramp (−90 my to +90 mV) was applied at 0.05 Hz. After a period of current stabilisation test compounds, solubilised in 100% (v/v) DMSO and subsequently diluted into extracellular solution, were applied to generate a cumulative concentration response curve. Each concentration of test compound was incubated for 5 minutes before addition of the next concentration. After the final concentration was tested a supramaximal concentration of either a known active positive modulator or the TMEM16A inhibitor, CaCCinhA01 (Del La Fuente et al, 2008) was added to define the upper and lower limits of the assay.
Compound activity was quantified by measuring the increase in current upon compound addition and expressing this as a percentage increase of baseline TMEM16A current level.
In FIG. 1, IBL equals baseline current, I[#1] equals the peak current during test compound concentration 1 incubation period and so on.
Peak TMEM16A current at +70 mV was plotted as a function of time over the assay period. Baseline current (IBL) was measured after a period of stabilisation. The increase in current for each compound addition was determined by taking the peak current during the incubation period and subtracting the current from the previous recording period and then expressing this as a percentage of the baseline current (% potentiation). For test compound concentration 1 in FIG. 1 this is: (I[#1]−IBL/IBL)×100 For each additional concentration tested the increase in current was determined by subtracting the current from the previous incubation period and normalising the baseline value—for test concentration 2 in FIG. 1 this is: (I[#2]−I[#1])/IBL)×100 The values for each test concentration were plotted as a cumulative function of concentration eg. for test concentration two this would be the sum of the peak changes measured during concentration one plus concentration two.

| Compound | microsomal CLint at 1 μM [1] [µL/min/mg] | QPatch TMEM16A % Potentiation @ 370 nM [2] [%] | QPatch TMEM16A % Potentation @ 3.3 μM [2] [%] | EC50 ([2]; FRT-TMEM16A cells, whole-cell patch clamp, peak current at +70 mV, intracellular calcium at EC20) [nM] | EC50 compared with Compound B ([2]; indole compounds versus comparator Compound B) | maximum potentiation of TMEM16A compared with Compound B ([2]; versus comparator Compound B) |
| --- | --- | --- | --- | --- | --- | --- |
| C#CC(C)(C)NC(=O)c1cc(NC(=O)Cc2cccc3cc[nH]c23)ccn1 [Compound B, reference compound] | 46 | 42 | 64 |  |  |  |
| CC1(NC(=O)c2cc(NC(=O)Cc3ccc4cc[nH]c4c3)ccn2)CC(F)(F)C1 [Example 13.1, N-(3,3-Difluoro-1-methyl-cyclobutyl)-4-[[2-(1H-indol-6-yl)acetyl]amino] pyridine-2-carboxamide] | 199 | 113 | 115 | 50 | lower EC50 values than Compound B | improved maximum potentiation of TMEM16A |
